Earlier results, collected in patent US11389520B2, “Modified tetra-acylated neisserial LPS” (priority 2016, dated 2022).

Target: human TLR4/MD-2 complex (Homo sapiens, UniProt O00206+Q9Y6Y9)
Sequence (O00206 24-839): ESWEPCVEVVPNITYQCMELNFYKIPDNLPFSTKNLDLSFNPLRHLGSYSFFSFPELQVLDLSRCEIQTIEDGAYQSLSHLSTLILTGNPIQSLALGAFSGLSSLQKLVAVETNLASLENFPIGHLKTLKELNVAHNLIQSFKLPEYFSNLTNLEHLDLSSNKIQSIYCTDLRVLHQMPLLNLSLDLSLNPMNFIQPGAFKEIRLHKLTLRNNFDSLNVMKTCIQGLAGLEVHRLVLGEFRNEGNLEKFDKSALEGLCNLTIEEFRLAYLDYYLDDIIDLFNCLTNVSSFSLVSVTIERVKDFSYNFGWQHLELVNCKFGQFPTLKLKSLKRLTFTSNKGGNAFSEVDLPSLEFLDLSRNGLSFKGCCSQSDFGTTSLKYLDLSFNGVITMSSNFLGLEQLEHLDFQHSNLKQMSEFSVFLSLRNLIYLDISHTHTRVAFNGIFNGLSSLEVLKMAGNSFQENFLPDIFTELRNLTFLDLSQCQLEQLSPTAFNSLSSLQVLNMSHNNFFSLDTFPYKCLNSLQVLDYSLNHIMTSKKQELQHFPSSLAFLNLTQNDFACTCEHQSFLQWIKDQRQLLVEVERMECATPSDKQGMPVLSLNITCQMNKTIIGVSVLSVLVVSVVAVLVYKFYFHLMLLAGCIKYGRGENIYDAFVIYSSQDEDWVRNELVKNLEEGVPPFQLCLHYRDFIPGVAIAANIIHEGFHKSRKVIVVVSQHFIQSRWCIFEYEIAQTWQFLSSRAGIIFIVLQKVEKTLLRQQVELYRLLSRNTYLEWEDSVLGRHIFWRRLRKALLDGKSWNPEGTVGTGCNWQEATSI
Sequence (Q9Y6Y9 17-160 limits assumed): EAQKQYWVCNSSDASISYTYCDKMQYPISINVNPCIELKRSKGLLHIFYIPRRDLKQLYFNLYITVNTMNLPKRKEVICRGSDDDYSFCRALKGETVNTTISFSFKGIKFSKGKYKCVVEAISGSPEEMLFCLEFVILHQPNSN

Structure (SMILES): CCCCCCCCCCC[C@@H](O)CC(=O)N[C@H]1[C@H](OC[C@H]2O[C@H](OP(=O)(O)O)[C@H](NC(=O)C[C@H](O)CCCCCCCCCCC)[C@@H](OC(=O)C[C@H](O)CCCCCCCCCCC)[C@@H]2O)O[C@H](CO)[C@@H](OP(=O)(O)O)[C@@H]1OC(=O)C[C@H](O)CCCCCCCCCCC [lipid IVa]
- Action on the human TLR4/MD-2 complex: antagonist
